Source: patent publication US10947196B2, “Beta adrenergic agonist and methods of using the same” (CURASEN THERAPEUTICS, INC., priority 2019, dated 2021)
Like-named read-outs stand apart in the source and are kept apart here.

What was measured:
Format in all cases: cell-based
β2 adrenergic receptor = β2 adrenergic receptor (Homo sapiens (Human), UniProt P07550); assay: cAMP Gs dynamic HTRF assay, β2 expressing CHO cells; details: B2-AR
In short: (§1)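 Intracellular cAMP quantified by Eu-donor/d2-acceptor HTRF after 30 min compound exposure at 37° C in stimulation buffer with IBMX. Concentrations ran 10 μM top, 5-fold steps, 10 points. Cell lines: 1321N1 astrocytoma and CHO expressing β1 or β2; EC50 via four-parameter fit, relative efficacy against isoproterenol.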

B3-AR = B3-AR (Homo sapiens (Human), UniProt P13945); assay: cAMP potency assay, B3-AR expressing CHO-K1 cells
Sequence of B3-AR (P13945 whole entry, species assumed): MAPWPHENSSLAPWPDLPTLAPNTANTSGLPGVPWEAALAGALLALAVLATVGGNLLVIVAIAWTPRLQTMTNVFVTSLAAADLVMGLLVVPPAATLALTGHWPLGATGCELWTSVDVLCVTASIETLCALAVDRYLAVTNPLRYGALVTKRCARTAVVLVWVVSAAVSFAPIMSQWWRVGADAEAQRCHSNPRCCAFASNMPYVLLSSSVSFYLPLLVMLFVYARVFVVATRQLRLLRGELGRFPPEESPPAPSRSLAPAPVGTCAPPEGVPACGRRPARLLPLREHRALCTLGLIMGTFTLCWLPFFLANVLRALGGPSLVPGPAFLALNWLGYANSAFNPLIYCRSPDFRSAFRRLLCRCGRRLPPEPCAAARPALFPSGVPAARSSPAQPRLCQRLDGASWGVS

[1] = target: β2 adrenergic receptors in human astrocytoma cells (1321N1) (Homo sapiens (Human), UniProt P07550); assay: cAMP HTRF assay in human astrocytoma cells (1321N1)
Sequence of β2 adrenergic receptors in human astrocytoma cells (1321N1) (P07550 whole entry): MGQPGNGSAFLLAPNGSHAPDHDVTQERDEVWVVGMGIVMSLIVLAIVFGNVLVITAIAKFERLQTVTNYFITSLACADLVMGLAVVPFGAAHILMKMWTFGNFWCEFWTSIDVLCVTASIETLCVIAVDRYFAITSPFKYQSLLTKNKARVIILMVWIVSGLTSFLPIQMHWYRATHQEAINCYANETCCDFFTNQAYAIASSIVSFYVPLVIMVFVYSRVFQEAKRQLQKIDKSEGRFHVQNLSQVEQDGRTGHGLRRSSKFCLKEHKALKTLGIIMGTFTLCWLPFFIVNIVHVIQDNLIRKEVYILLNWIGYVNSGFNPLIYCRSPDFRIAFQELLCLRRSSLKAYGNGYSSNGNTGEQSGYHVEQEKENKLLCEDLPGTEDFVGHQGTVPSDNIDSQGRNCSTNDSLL
Method: cAMP homogeneous time-resolved fluorescence (HTRF). Compound efficacy was determined using the cAMP Gs dynamic HTRF assay (Cisbio, catalog #62AM4PEC) largely following the manufacturer's instructions, also detailed below.
Compound preparation. […] Standard serial dilution curves were 10-point, 5-fold dilutions starting from a highest concentration of 10 μM. […] Assay plates were centrifuged at 500×g for 10 seconds. Compounds and IBMX were prepared at 2× final dose to compensate for addition of cells.
Cell preparation. 1× stimulation buffer, washing PBS (Dulbecco's phosphate-buffered saline, −Mg −Ca; Caisson Labs, catalog #PBL01), assay PBS (Dulbecco's phosphate-buffered saline, +Mg, +Ca; Caisson Labs, catalog #PBL02) and Versene (0.02% EDTA disodium salt solution in PBS without calcium or magnesium; Caisson Labs, catalog #EDL01) were pre-warmed to 37° C. Cells expressing beta-adrenergic receptor were washed in washing PBS to remove growth medium and then released from the surface by incubating with Versene for 5-10 minutes at 37° C. Cells were harvested using assay PBS, counted manually by hemocytometer or by an automated cell counter, pelleted by centrifugation (200×g, 5 minutes) and resuspended in 37° C. 1× stimulation buffer to a final density of 1.5×10^6 cells/mL. 5 μL of the suspended cell solution (7500 cell total) were added to all wells of the 384 well assay plate, the assay plate was covered with an Axygen® plate seal (Corning PCR-SP) and incubated in a humidified 37° C. environment supplemented with 5% CO2 for 30 minutes.
HTRF reagent addition, reading and data analysis. After 30 minutes of cell stimulation with test compound, the assay plates were centrifuged at 500×g for 10 seconds, and incubation was stopped with the addition of 5 μL cAMP-D2 acceptor, diluted 1:21 in detection and lysis buffer 2 (Cisbio 62CL2FDF) was added to all cells. Subsequently, 5 μL Anti-cAMP-Eu Donor, diluted 1:21 in detection and lysis buffer 2, was added to cells. Plates were sealed and reactions gently ‘vortexed’ at 900 rpm on a Heidolph Titramax 1000 for at least 30 minutes at room temperature. Plates were centrifuged again at 500×g for 10 seconds, and HTRF was measured using a Tecan Spark plate reader at 50 flashes per well. […] Potency estimates (EC50) were derived from the four-parameter nonlinear regression of the concentration-effect curve and an estimate of relative efficacy was determined by comparing the magnitude of the test compound HTRF signal window (min−max dose) with the signal window of the full agonist control, isoproterenol.

β1-adrenergic receptor = β1-adrenergic receptor (Homo sapiens (Human), UniProt P08588); assay: cAMP Gs dynamic HTRF assay, β1 expressing CHO cells; details: B1-AR
Sequence of β1-adrenergic receptor (P08588 whole entry, species assumed): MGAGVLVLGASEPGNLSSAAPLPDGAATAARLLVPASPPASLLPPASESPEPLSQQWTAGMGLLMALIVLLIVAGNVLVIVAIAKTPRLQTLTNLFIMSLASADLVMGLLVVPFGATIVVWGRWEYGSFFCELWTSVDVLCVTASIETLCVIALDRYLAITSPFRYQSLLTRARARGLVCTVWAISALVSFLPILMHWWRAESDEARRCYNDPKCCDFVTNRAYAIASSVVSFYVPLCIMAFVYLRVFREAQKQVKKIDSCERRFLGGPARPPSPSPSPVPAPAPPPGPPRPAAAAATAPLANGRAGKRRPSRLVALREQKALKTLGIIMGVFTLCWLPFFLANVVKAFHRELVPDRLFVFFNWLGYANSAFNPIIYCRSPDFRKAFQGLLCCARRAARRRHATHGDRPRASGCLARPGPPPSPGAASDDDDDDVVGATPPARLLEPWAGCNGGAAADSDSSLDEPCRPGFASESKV
In short: as §1

[2] = CHO-K1 (HitHunter), read-out: Average pEC50 [Receptor subtype: B2-AR, Cell type: CHO-K1 (HitHunter)] (converted)
[3] = CHO-K cells, read-out: Average EC50 [Receptor subtype: B2-AR, Cell type: CHO-K]
[4] = read-out: Average pEC50 [Receptor subtype: B3-AR, Cell type: CHO-K1] (converted)
[5] = Endogenous receptor, 1321N1 cells, read-out: Average pEC50 [Receptor subtype: Endogenous, Cell type: 1321N1] (converted)
[6] = CHO-K1 (HitHunter), read-out: Average pEC50 [Receptor subtype: B1-AR, Cell type: CHO-K1 (HitHunter)] (converted)
[7] = CHO-K cells, read-out: Average EC50 [Receptor subtype: B1-AR, Cell type: CHO-K]
[8] = Average pEC50 [Receptor subtype: B2-AR, Cell type: CHO-K1 (HitHunter)], CHO-K1 (HitHunter)
[9] = Average pEC50 [Receptor subtype: B1-AR, Cell type: CHO-K1 (HitHunter)], CHO-K1 (HitHunter)

Sequence of β2 adrenergic receptor (P07550 whole entry, species assumed): as the sequence (P07550 whole entry) above

Row | SMILES | EC50 (β2 adrenergic receptor; [2]) [nM] | EC50 [1, 5] [nM] | EC50 (β1-adrenergic receptor; [6]) [nM] | other results
1 | Cc1ccc([C@@H](O)CNC(C)(C)C)nc1C(F)(F)F [Compound 03-167] | < 10 | < 10 | < 10 | EC50 (β2 adrenergic receptor; [3]): < 10 nM; EC50 (B3-AR; [4]): > 1000 nM; EC50 (β1-adrenergic receptor; [7]): < 10 nM
2 | CC(C)Oc1ncccc1[C@@H](O)CNC(C)(C)C [Compound 03-57] | 10 to 100 |  |  | EC50 (β2 adrenergic receptor; [3]): 10 to 100 nM; EC50 (B3-AR; read-out: Average EC50 [Receptor subtype: B3-AR, Cell type: CHO-K1]): > 1000 nM; EC50 (B3-AR; [4]): > 1000 nM; Average pEC50 [Receptor subtype: Endogenous; Cell type: 1321N1] ([1]; Endogenous receptor, 1321N1 cells): C (C = <7-6); EC50 ([1]; Endogenous receptor, 1321N1 cells, read-out: Average EC50 [Receptor subtype: Endogenous, Cell type: 1321N1]): 100 to 1000 nM; Average pEC50 [Receptor subtype: B1-AR; Cell type: CHO-K1 (HitHunter)] (β1-adrenergic receptor; CHO-K1 (HitHunter)): C (C = <7-6); EC50 (β1-adrenergic receptor; [7]): 100 to 1000 nM
3 | Cc1ccc([C@@H](O)CNC(C)(C)C)nc1C#N [Compound 03-8] | 100 to 1000 | > 1000 | > 1000 | EC50 (β2 adrenergic receptor; [3]): 100 to 1000 nM; EC50 (B3-AR; [4]): > 1000 nM; EC50 (β1-adrenergic receptor; [7]): > 1000 nM
4 | CC(C)(C)NC[C@H](O)c1cccnc1OC1CCC1 [Compound 03-72] | < 10 | 10 to 100 | 10 to 100 | 
5 | Cc1ccc([C@@H](O)CNC(C)(C)C)cn1 [Compound 03-248] | 10 to 100 | 10 to 100 | 10 to 100 | 
6 | CC(C)(C)NC[C@H](O)c1cccc(NC2CC2)n1 [Compound 03-189] | < 10 | 10 to 100 | 10 to 100 | 
7 | CC(C)(C)NC[C@@H](O)c1ccnc(C#N)c1 [Compound 03-111] | 10 to 100 | 100 to 1000 | > 1000 | 
8 | COc1ccc(C[C@@H](C)NC[C@H](O)c2cccnc2C2=CCCC2)cc1 [Compound 03-63] |  |  |  | EC50 (β2 adrenergic receptor; [8]): 100 to 1000 nM; EC50 [1]: > 1000 nM; EC50 (β1-adrenergic receptor; [9]): > 1000 nM
9 | CC(C)(C)NC[C@H](O)c1cc(F)cnc1C1=CCCC1 [Compound 03-89] | 100 to 1000 | > 1000 | > 1000 | 
10 | CC(C)(C)NC[C@H](O)c1cccc(-n2cccc2)n1 [Compound 03-123] | < 10 | < 10 |  | EC50 (β2 adrenergic receptor; [3]): < 10 nM; Average pEC50 [Receptor subtype: B1-AR; Cell type: CHO-K1 (HitHunter)] (β1-adrenergic receptor; CHO-K1 (HitHunter)): A (A > 8); EC50 (β1-adrenergic receptor; [7]): < 10 nM
11 | CN(C)c1cccc([C@@H](O)CNC(C)(C)C)n1 [Compound 03-153] | < 10 | 10 to 100 | 10 to 100 | EC50 (β2 adrenergic receptor; [3]): < 10 nM; EC50 (β1-adrenergic receptor; [7]): 10 to 100 nM
12 | CC(C)(C)NC[C@H](O)c1cccc(-n2nccn2)n1 [Compound 03-101] | 10 to 100 | 100 to 1000 | > 1000 | 
13 | CC(C)(C)NC[C@@H](O)c1cccc(-n2ccnc2)n1 [Compound 03-228] | < 10 | < 10 | 10 to 100 | 
14 | CC(C)(CO)NC[C@H](O)c1cccc(C#N)n1 [Compound 03-104] | 100 to 1000 | 100 to 1000 | 100 to 1000 | 
15 | Cc1ccc([C@@H](O)CNC(C)(C)C)c(C)n1 [Compound 03-67] | < 10 | 10 to 100 | 100 to 1000 | 
16 | Cc1ncc(Cl)cc1[C@@H](O)CNC(C)(C)C [Compound 03-267] | 10 to 100 | 100 to 1000 | 100 to 1000 | 

Row | SMILES | EC50 (β2 adrenergic receptor; [2]) [nM] | EC50 [1, 5] [nM] | EC50 (β1-adrenergic receptor; [6]) [nM] | other results
17 | COc1ccc(C[C@@H](C)NC[C@H](O)c2cccnc2C)cc1 [Compound 03-66] | < 10 | 100 to 1000 | 10 to 100 | 
18 | COc1ccc(C[C@@H](C)NC[C@H](O)c2ccc(OC)nc2C)cc1 [Compound 03-253] |  |  |  | EC50 (β2 adrenergic receptor; [8]): 10 to 100 nM; EC50 [1]: 100 to 1000 nM; EC50 (β1-adrenergic receptor; [9]): > 1000 nM
19 | CC(C)(C)NC[C@H](O)c1cc(F)cnc1C1CCCC1 [Compound 03-80] | 10 to 100 | 100 to 1000 | > 1000 | 
20 | CC(C)(C)NC[C@H](O)c1cccc(C2CCCC2)n1 [Compound 03-237] | < 10 | < 10 | 10 to 100 | 
21 | CC(C)(C)NC[C@H](O)c1cccnc1OC1CC1 [Compound 03-71] | 10 to 100 | 10 to 100 | 100 to 1000 | 
22 | CC(C)(C)NC[C@@H](O)c1cccc(Cl)n1 [Compound 03-230] | 10 to 100 | 100 to 1000 | 10 to 100 | 
23 | COc1ccc(C[C@@H](C)NC[C@H](O)c2cccc(OC(F)(F)F)n2)cc1 [Compound 03-257] | < 10 | < 10 | 10 to 100 | 
24 | CC(C)(C)NC[C@H](O)c1cccc(C(C)(C)C)n1 [Compound 03-209] | < 10 | < 10 | < 10 | 
25 | C#Cc1cccc([C@H](O)CNC(C)(C)C)n1 [Compound 03-238] | 10 to 100 | 100 to 1000 | 100 to 1000 | 
26 | CC(C)Nc1cccc([C@@H](O)CNC(C)(C)C)n1 [Compound 03-192] | < 10 | 10 to 100 | 10 to 100 | 
27 | CC(C)(C)NC[C@@H](O)c1cccc(C2CCC2)n1 [Compound 03-162] | 10 to 100 | 100 to 1000 |  | EC50 (β2 adrenergic receptor; [3]): 10 to 100 nM; Average pEC50 [Receptor subtype: B1-AR; Cell type: CHO-K1 (HitHunter)] (β1-adrenergic receptor; CHO-K1 (HitHunter)): D (D < 6); EC50 (β1-adrenergic receptor; [7]): > 1000 nM
28 | CC(C)(C)NC[C@H](O)c1cccc(-c2ccc[nH]2)n1 [Compound 03-95] | < 10 | < 10 | < 10 | 
29 | CC(C)(C)NC[C@H](O)c1cccc(C2=CCCC2)n1 [Compound 03-197] | < 10 | < 10 | 10 to 100 | 
30 | CC(C)(C)NC[C@H](O)c1cccnc1OC(F)(F)F [Compound 03-70] | 10 to 100 | 10 to 100 | 100 to 1000 | 
31 | CC(C)(C)NCC(O)c1cc(C#N)cc(C(F)(F)F)n1 (stereo not shown) [Compound 03-181] | 100 to 1000 | 100 to 1000 | > 1000 | EC50 (β2 adrenergic receptor; [3]): 100 to 1000 nM; EC50 (β1-adrenergic receptor; [7]): > 1000 nM
32 | COc1ccc(C[C@@H](C)NC[C@H](O)c2cccnc2C2CCCC2)cc1 [Compound 03-64] |  |  |  | EC50 (β2 adrenergic receptor; [8]): 100 to 1000 nM; EC50 [1]: 100 to 1000 nM; EC50 (β1-adrenergic receptor; [9]): > 1000 nM
